Laboratory results as given in ChEMBL document CHEMBL1142484, “Design and synthesis of sulfoximine based inhibitors for HIV-1 protease” (Bioorg Med Chem Lett, 2008).

Molecular target: Protease (Human immunodeficiency virus 1, UniProt Q9YQ12)
Test: Inhibition of HIV1 protease

Chain of Protease (Q9YQ12 whole entry): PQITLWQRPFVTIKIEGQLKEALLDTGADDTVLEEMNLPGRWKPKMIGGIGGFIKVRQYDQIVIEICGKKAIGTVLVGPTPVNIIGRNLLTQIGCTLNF

Structure (SMILES) | IC50
O=C(N[C@H]1c2ccccc2C[C@H]1O)[C@H](Cc1ccccc1)CC(O)C[C@@H](Cc1ccccc1)C(=O)N[C@H]1c2ccccc2C[C@H]1O | 0.0006 µM
CC(C)(C)NC(=O)[C@H]1CN(Cc2cccnc2)CCN1C[S+](=N)([O-])C[C@H](Cc1ccccc1)C(=O)N[C@@H]1c2ccccc2C[C@@H]1O (stereo partly drawn) | 100 µM
CC(C)(C)NC(=O)C1CN(Cc2cccnc2)CCN1C[S+]([O-])C[C@H](Cc1ccccc1)C(=O)NC1c2ccccc2CC1O (single isomer, unassigned) | 100 µM
